Legend:
Conditions in all cases: 72 h
HL-60 [1] = assay: cell viability (% survival relative to DMSO control); higher = less cytotoxic
Outline: (§1)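 HL-60 cells in RPMI 1640 with 10% FBS were rescreened against the full library on 384-well plates at five tenfold concentrations, 1–10,000 nM, in duplicate. Each screen was run with DMSO or 100 nM of one of three metabolic inhibitors, for 72 h at 37 °C, 5% CO2. Viability was read by CellTiter-Glo and normalised to DMSO and 10 μM proteasome-inhibitor wells. Where given, area under the curve came from four-parameter log-logistic fits (drc, PharmacoGx).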

[2] = system: myeloid leukemia patient primary cells Pat.12; assay: area under dose-response curve (viability, 1 nM-10 uM) (fraction (0-1)); higher = more sensitive
Experimental: (§2)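 AUC (0–1, higher = more sensitive) of the 5-point dose–response (1 nM–10 µM, 72 h, CellTiter-Glo) in primary AML/CML patient mononuclear cells. 0.030103 is the floor for inactive compounds.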

[3] = system: myeloid leukemia patient primary cells Pat.4; assay: as above
Experimental: as §2

[4] = system: myeloid leukemia patient primary cells Pat.3; assay: as above
Experimental: as §2

[5] = system: myeloid leukemia patient primary cells Pat.1; assay: as above
Experimental: as §2

[6] = system: myeloid leukemia patient primary cells Pat.13; assay: as above
Experimental: as §2

[7] = system: myeloid leukemia patient primary cells Pat.2; assay: as above
Experimental: as §2

[8] = system: myeloid leukemia patient primary cells Pat.15; assay: as above
Experimental: as §2

[9] = system: myeloid leukemia patient primary cells Pat.14; assay: as above
Experimental: as §2

[10] = system: myeloid leukemia patient primary cells Pat.8; assay: as above
Experimental: as §2

[11] = system: myeloid leukemia patient primary cells Pat.7; assay: as above
Experimental: as §2

[12] = system: myeloid leukemia patient primary cells Pat.11; assay: as above
Experimental: as §2

[13] = system: myeloid leukemia patient primary cells Pat.10; assay: as above
Experimental: as §2

[14] = system: myeloid leukemia patient primary cells Pat.6; assay: as above
Experimental: as §2

[15] = system: myeloid leukemia patient primary cells Pat.5; assay: as above
Experimental: as §2

[16] = system: myeloid leukemia patient primary cells Pat.9; assay: as above
Experimental: as §2

HL-60 [17] = assay: area under dose-response curve (viability, 1 nM-10 uM) (fraction (0-1)); higher = more sensitive
Outline: as §1

[18] = system: myeloid leukemia patient primary cells Pat.2; assay: cell viability (% survival relative to DMSO control); higher = less cytotoxic
Outline: (§3)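 Mononuclear cells from patients with AML or CML were thawed, purified on Ficoll and placed in RPMI 1640 with 10% FBS at 10,000 cells/well on 384-well plates. The plates came pre-printed with 70 compounds at five tenfold concentrations spanning 1–10,000 nM, in duplicate, and cells were exposed for 72 h. CellTiter-Glo gave viability, scaled between DMSO wells and wells with 10 μM proteasome inhibitor. Where reported, area under the curve was obtained from log-logistic fits with four parameters using the drc and PharmacoGx R packages.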

[19] = system: myeloid leukemia patient primary cells Pat.15; assay: as above
Outline: as §3

[20] = system: myeloid leukemia patient primary cells Pat.7; assay: as above
Outline: as §3

[21] = system: myeloid leukemia patient primary cells Pat.11; assay: as above
Outline: as §3

[22] = system: myeloid leukemia patient primary cells Pat.10; assay: as above
Outline: as §3

[23] = system: myeloid leukemia patient primary cells Pat.6; assay: as above
Outline: as §3

Cc1[nH]nc(C(F)(F)F)c1Cc1sc2c(c1C(=O)N1C[C@](C)(O)CO1)c(=O)n(C)c(=O)n2C(C)C [AZD3965]
cell viability [%], HL-60 [1]
Conditions	0.001 µM	0.01 µM	0.1 µM	1 µM	10 µM
co-treatment: AZD3965 100 nM	92.7	98.1	96	92.2	102
co-treatment: DMSO vehicle	102	95.8	97.9	94.6	99.6
co-treatment: GSK2194069 100 nM	98	95.7	108	97.5	105
co-treatment: pictilisib 100 nM	89.3	97.7	109	97.9	112

Conditions	area under dose-response curve
[2]	< 0.0301
[3]	< 0.0301
[4]	< 0.0301
[5]	< 0.0301
[6]	< 0.0301
[7]	< 0.0301
[8]	< 0.0301
[9]	< 0.0301
[10]	< 0.0301
[11]	< 0.0301
[12]	< 0.0301
[13]	0.167
[14]	< 0.0301
[15]	0.149
[16]	< 0.0301

Conditions	area under dose-response curve, co-treatment: AZD3965 100 nM	area under dose-response curve, co-treatment: DMSO vehicle	area under dose-response curve, co-treatment: GSK2194069 100 nM	area under dose-response curve, co-treatment: pictilisib 100 nM	cell viability, 1 nM [%]	cell viability, 10 nM [%]	cell viability, 100 nM [%]	cell viability, 1000 nM [%]	cell viability, 10000 nM [%]
HL-60 [17]	< 0.0301	< 0.0301	< 0.0301	< 0.0301	–	–	–	–	–
[18]	–	–	–	–	97	87.2	99	96.3	98
[19]	–	–	–	–	84	98.8	92.7	96.7	93.6
[20]	–	–	–	–	64	45.1	93.6	99.9	98.5
[21]	–	–	–	–	93.7	91.6	> 100	> 100	88.6
[22]	–	–	–	–	98.2	33.4	85	46.5	48.7
[23]	–	–	–	–	90.7	83.2	97.7	94.9	96.1

— the supplement of paper PMC8671470
